How the values were obtained:
mouse TRPM7 = target: T1, mouse TRPM7 (Mus musculus, UniProt Q923J1); assay: Whole-cell patch clamp of TRPM7 current (IM7) in HEK 293T cells overexpressing mouse TRPM7; format: cell-based
T1 construct: expressed in transfected cells; host or cells: HEK 293T cells (CRL-3216; ATCC), transient transfection with jetOPTIMUS, co-transfected eGFP as a separate plasmid
Description: To overexpress TRPM7, HEK 293T cells were plated at a density of 500,000 cells per well (day 0), transfected at 80–90% confluency (day 1), and were patched 24–36 h after transfection (day 2). TRPM7 overexpression was performed using WT mouse TRPM7 (2.5 µg plasmid DNA; [Desai et al., 2012]) and jetOPTIMUS DNA Transfection Reagent (101000006; Polyplus). To enhance the selection rate of TRPM7-overexpressing cells, eGFP (#22152; Addgene) was included at a 1:10 dilution (0.25 µg) and only GFP-positive cells were patched.
Whole-cell patch clamp electrophysiology was performed as described previously ([Schappe et al., 2022]). Briefly, the external solution contained (in mM) 140 Na-methanesulfonate, 5 Cs-gluconate, 2.5 CaCl2, and 10 HEPES, pH 7.4 (adjusted with NaOH), at an osmolality of 280–290 mOsm/kg. The internal pipette solution contained (in mM) 115 Cs-gluconate, 3 NaCl, 0.75 CaCl2, 10 HEPES, 10 HEDTA, 1.8 Cs4-BAPTA, and 2 Na2ATP, pH 7.3 (adjusted with CsOH), at an osmolality of 273 mOsm/kg. Intracellular free [Ca^2+] was estimated to be ∼100 nM using the online WEBMAXC standard calculator at https://somapp.ucdmc.ucdavis.edu/pharmacology/bers/maxchelator/webmaxc/webmaxcS.htm ([Bers et al., 2010]). Recordings were captured in pCLAMP 9 (Molecular Devices) using a 400-ms ramp protocol from −100 to +100 mV and a holding potential of 0 mV. Sampling was performed at 10 kHz with a 5 kHz low-pass band filter using an Axopatch 200B amplifier (Molecular Devices). All electrophysiology experiments were conducted at RT (∼23°C). […] Similarly, the minimum current for each inhibitor dose is taken as the stable minimum current observed after the drug has had time to exert an effect and after the flow-driven transient increase has subsided.
Data were analyzed using Microsoft Excel, Prism 9.5 (GraphPad Software), and Origin Pro 7.5 (OriginLab). Chemical structures were created using ChemDraw Professional 20.1.1 (PerkinElmer). Electrophysiology traces were plotted using Origin Pro 7.5, and the remaining data were plotted and statistically tested using Prism. Outliers were determined using the robust regression and outlier removal (ROUT) function within Prism. IC50 values were determined by plotting the percentage of maximum current observed as a function of applied drug concentration. A non-linear regression was fit using a standard Hill slope of −1.0 and the model: Y=100/[1+([Inhibitor]/IC50)]. Where appropriate, data are presented as individual values; otherwise the sample sizes and precision measures are indicated in the figure legends. P values of <0.05 were considered statistically significant.

HeLa cells = assay: LDH-release cytotoxicity assay; format: cell-based; settings: 24 h
Description: WT HeLa cells were plated at a density of 10,000 cells per well into a 96-well tissue culture microplate (3610; Costar). AAL-149, VPC01091.4, or vehicle at 0.1, 1, 5, 10, and 25 μM was added to cells with media for a final volume of 100 μl and incubated for 24 h. LDH release was quantified using a CyQUANT LDH Cytotoxicity Assay (C20300; Thermo Fisher Scientific) and a FlexStation 3 plate reader using SoftMax […] (Molecular Devices).

BMDMs = assay: LPS-induced inflammation assay in WT and TRPM7 KO BMDMs (qRT-PCR); format: cell-based, mice
Description: All cells were cultured at 37°C with 5% CO2. HEK 293T cells (CRL-3216; ATCC), HeLa cells (CCL-2; ATCC), RAW 264.7 macrophages (TIB-71; ATCC), and BV-2 microglial cells (ABC-TC212S; AcceGen Biotech) were cultured in DMEM (11995065; Gibco) with 10% fetal bovine serum (FBS; Avantor Seradigm Premium Grade Fetal Bovine Serum 97068-085). FBS was heat-inactivated prior to use at 56°C for 30 min. BMDMs were isolated and cultured as previously described ([Schappe et al., 2018]) and differentiated into mature macrophages over 7 d through culture in BMDM media (RPMI 1640, 10% FBS, and 20% L-929 culture supernatant; Gibco).
(§1) RAW 264.7 macrophages or BMDMs were seeded at a density of 250,000 cells per well into a 12-well tissue culture plate in 1 ml of media and left to incubate overnight. The indicated drug or vehicle control was added to each well, and the plate was agitated and left to incubate for 10 min. The cells were then treated with LPS (1 µg/ml) or an equivalent volume of PBS, agitated, and left to incubate for 3 h. Cells were washed with PBS and then RNA isolation was performed using RNeasy Plus Micro Kit (74134; Qiagen). cDNA was produced using GoScript Reverse Transcriptase (A5004; Promega) and a quantitative PCR was performed using SensiFast SYBR (98020; Bioline) and Bio-Rad CFX Connect thermocycler. Each datum represents an individual, biological replicate that is the mean of duplicate technical replicates. Fold-changes are all reported relative to untreated controls for each experiment and were calculated using the ∆∆Ct method, with β2-microglobulin used as the housekeeping gene for each sample. The experiment was performed similarly with BV-2 microglia and alveolar macrophages, except that cells were plated at a density of 100,000 cells per well into a 24-well tissue culture plate with 1 ml of media per well.

BV-2 microglia = assay: LPS-induced cytokine expression in BV-2 microglia (qRT-PCR); format: cell-based, mouse; settings: 10 µM pretreatment, LPS 1 µg/ml for 3 h
Description: as §1, with “μg/ml)” for “µg/ml)”, “([…];” for “(A5004;”, “ΔΔCt” for “∆∆Ct”

T1 sequence (Q923J1 whole entry): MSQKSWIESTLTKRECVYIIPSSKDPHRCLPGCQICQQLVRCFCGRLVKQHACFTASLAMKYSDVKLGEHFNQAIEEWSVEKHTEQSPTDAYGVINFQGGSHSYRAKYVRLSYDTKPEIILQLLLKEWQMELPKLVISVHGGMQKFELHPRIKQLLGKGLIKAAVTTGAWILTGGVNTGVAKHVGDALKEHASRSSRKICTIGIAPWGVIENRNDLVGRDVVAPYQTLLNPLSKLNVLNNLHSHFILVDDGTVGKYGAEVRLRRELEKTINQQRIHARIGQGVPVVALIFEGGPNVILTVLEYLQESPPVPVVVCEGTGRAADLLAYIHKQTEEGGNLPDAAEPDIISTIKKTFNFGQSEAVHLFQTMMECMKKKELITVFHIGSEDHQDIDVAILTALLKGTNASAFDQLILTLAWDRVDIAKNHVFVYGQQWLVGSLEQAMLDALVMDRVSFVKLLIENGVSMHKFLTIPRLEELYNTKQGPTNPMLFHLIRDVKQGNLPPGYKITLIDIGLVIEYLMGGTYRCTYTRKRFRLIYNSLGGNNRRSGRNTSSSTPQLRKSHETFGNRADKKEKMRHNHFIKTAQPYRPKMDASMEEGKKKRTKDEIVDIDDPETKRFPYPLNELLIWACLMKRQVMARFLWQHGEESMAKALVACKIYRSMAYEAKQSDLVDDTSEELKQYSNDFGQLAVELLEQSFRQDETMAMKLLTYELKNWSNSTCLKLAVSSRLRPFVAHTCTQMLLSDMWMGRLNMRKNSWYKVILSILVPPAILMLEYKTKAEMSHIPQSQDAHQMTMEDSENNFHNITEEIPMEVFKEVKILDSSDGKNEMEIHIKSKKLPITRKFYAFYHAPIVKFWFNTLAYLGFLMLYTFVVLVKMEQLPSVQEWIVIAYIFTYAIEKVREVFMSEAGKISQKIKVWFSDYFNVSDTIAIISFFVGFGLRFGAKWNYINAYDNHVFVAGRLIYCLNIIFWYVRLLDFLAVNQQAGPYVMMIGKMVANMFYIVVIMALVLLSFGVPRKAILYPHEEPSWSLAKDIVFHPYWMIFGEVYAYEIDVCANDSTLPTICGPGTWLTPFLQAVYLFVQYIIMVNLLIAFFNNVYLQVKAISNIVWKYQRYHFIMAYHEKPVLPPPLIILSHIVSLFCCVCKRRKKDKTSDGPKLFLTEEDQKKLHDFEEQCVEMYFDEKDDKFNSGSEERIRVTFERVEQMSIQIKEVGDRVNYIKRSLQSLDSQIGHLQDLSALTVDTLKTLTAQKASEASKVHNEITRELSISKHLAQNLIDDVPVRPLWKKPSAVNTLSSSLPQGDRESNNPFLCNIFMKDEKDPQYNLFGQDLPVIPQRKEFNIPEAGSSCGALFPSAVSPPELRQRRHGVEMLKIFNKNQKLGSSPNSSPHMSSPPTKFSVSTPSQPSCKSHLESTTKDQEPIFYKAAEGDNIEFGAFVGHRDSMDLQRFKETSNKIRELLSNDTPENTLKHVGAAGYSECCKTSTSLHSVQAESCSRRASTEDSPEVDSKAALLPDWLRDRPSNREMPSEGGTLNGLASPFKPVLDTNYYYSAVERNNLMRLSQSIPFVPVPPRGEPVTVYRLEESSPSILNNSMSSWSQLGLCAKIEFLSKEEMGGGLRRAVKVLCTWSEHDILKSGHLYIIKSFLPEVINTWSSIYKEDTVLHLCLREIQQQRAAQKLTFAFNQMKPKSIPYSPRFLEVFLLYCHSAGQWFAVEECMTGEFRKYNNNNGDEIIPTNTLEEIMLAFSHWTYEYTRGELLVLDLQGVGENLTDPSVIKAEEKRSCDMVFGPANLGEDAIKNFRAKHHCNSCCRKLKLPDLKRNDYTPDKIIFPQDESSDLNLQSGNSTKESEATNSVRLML

Q: Which results are given for `CCCCCCCCc1ccc([C@@H]2CC[C@@](N)(CO)C2)cc1` [VPC01091.4, ((1S,3R)-1-amino-3-(4-octylphenyl)cyclopentyl)methanol]?
A: Effect on whole-cell TRPM7 current (IM7) (mouse TRPM7; 5 µM): current inhibition; IC50 (mouse TRPM7; peak current at +100 mV, HEK 293T overexpressing mouse TRPM7, Hill slope -1.0, read-out: IC50 for inhibition of TRPM7 current (IM7)): 665 nM; Cytotoxicity (LDH release) (HeLa cells; 25 μM, compared with positive control of 100% cytotoxicity): 4%; Cytotoxicity (LDH release) (HeLa cells; dosages up to 10 µM): did not result in any significant cytotoxicity; Mean cytotoxicity (LDH release) (HeLa cells; each dose up to 25 µM): < 5%; LPS-induced IL-1β expression in TRPM7 KO BMDMs (BMDMs; 10 µM VPC4, 10 µM AAL-149, 5 µM FTY720, 30 μM NS8593): able to suppress; LPS-induced IL-6 expression in Trpm7 KO BMDMs (BMDMs; 10 µM, effect on top of genetic deletion): additive effect; LPS-induced inflammatory cytokine expression (BV-2 microglia): direct anti-inflammatory effects
